The values that follow come from article PMC2990587, “Central nervous system penetration and enhancement of temozolomide activity in childhood medulloblastoma models by poly(ADP-ribose) polymerase inhibitor AG-014699” (British Journal of Cancer, 2010).

Entries after “also recorded” stand apart in the source; their conditions may differ. Some results are limits rather than exact numbers.

A short description of data set [1]: AG-014447 distribution in plasma, brain and D283Med xenograft of tumour-bearing mice (LC/MS/MS). It is filed as in vivo, mouse. As to conditions: for AUC in tumour: D283Med xenograft. On the procedure: One or four daily doses of PARP inhibitor AG-014699 (1 mg kg^−1 intraperitoneally (i.p.)) were given to CD-1 nude mice bearing established D283Med xenografts. At 0.5, 2, 6 and 24 h after the initial or fourth daily dose of AG-014699, three animals per time point were bled by cardiac puncture under general anaesthesia, and then killed. Plasma was separated from the blood samples using standard methods and stored at −80°C. The brains and tumours were removed, snap frozen in liquid nitrogen and stored at −80°C before analysis. Blood, tumour and brain tissue were removed from three untreated control animals and processed in the same way.
AG-014699 is the phosphate salt of AG-014447 and rapidly liberates the parent drug following injection. The concentration of AG-014447 was determined in plasma and tissue homogenates (1 : 4 (w v^−1) in PBS) of brain and tumour after protein precipitation with acetonitrile by liquid chromatography/mass spectrometry/mass spectrometry using a turbo ion spray interface and multiple reaction monitoring in the positive ion mode (API 4000; Applied Biosystems, Warrington, Cheshire, UK) and a deuterated internal standard as described previously ([Plummer et al, 2008]). The lower limit of quantitation was 1 ng ml^−1. Plasma pharmacokinetics of AG-014447 were analysed using a non-compartmental approach in WinNonlin version 5.2.

On the set-up of data set [2]: method as in Thomas et al, 2007. As to conditions: ref Thomas et al, 2007; cited from earlier work.
Data set [3] relates to D425Med cells. Nature of the data set: XTT growth inhibition, D425Med. Type of data set: cell-based, human. As to conditions: for GI50: D425Med, temozolomide alone, XTT, 3 days. The procedure: (§1) Cell growth inhibition was estimated in exponentially growing D425Med, D283Med and D384Med cells in 96-well plates. Seeding densities of 1 × 10^3, 3 × 10^3 and 3 × 10^3 cells, respectively, ensured exponential growth for the duration of the experiment. At 24 h (D384Med) or 48 h (D283Med and D425Med) after seeding, cells were exposed to varying concentrations of temozolomide, as described in the Results, in the presence or absence of 0.4 μM AG-014699, a concentration previously shown to enhance temozolomide cytotoxicity in adult tumour cell lines ([Thomas et al, 2007]). After 3 days (D425Med and D384Med) or 5 days (D283Med) of culture (equivalent to approximately three cell divisions), the cell viability was quantified using an XTT cell proliferation kit assay (Roche, Mannheim, Germany), according to the manufacturer's instructions. Cell growth was expressed as a percentage in relation to DMSO or 0.4 μM AG-014699-alone controls. The concentration of temozolomide, alone or in combination with AG-014699, that inhibited growth by 50% (GI50) was calculated from computer-generated curves (GraphPad Software, San Diego, CA, USA). The potentiation factor50 (PF50) is defined as the ratio of […]. All data were from at least three independent experiments.

In data set [4] the test system is D283Med cells. Nature of the data set: XTT growth inhibition, D283Med. Type of data set: cell-based, human. On the procedure: as §1
Data set [5] relates to D384Med cells. Nature of the data set: XTT growth inhibition, D384Med. As to conditions: Homo sapiens, D384 Med, 72 h; D384Med; temozolomide alone; XTT, 3 days. Type of data set: cell-based, human. On the procedure: as §1
Data set [6] relates to D425Med xenografts. Nature of the data set: Tumour growth inhibition in vivo, D425Med xenografts. More on the design: species or system mouse. The text has this: (§2) All of the in vivo experiments were reviewed and approved by the relevant institutional animal welfare committees, and performed according to national law. Female athymic nude mice (CD1 nu/nu; Charles River, Margate, UK) used for anti-tumour studies were maintained and handled in isolators under specific pathogen-free conditions. […], […] and […] (1 × 10^7 exponentially growing cells per mouse, harvested and implanted in growth media) xenografts were established by sub-cutaneous implantation into CD-1 nude mice. […] Treatment was initiated when sufficient number of mice had established tumours to allow randomisation into treatment groups: day 17 for […], day 26 for […] and day 32 for […]. […] For drug combinations, AG-014699 was administered immediately after administering temozolomide. […] Tumour growth delay (TGD) is defined as the time to RTV4 in drug-treated mice compared with the time to RTV4 in control (vehicle alone) mice. Median tumour volume is shown, rather than the mean, as this is generally accepted as the most statistically reliable representation of the average growth rate of tumours in a small group of mice, if a normal distribution of tumour volumes cannot be assumed. Tumour growth delay was calculated as: median time to RTV4 in treated group-median time to RTV4 in control group.

The subject of data set [7] is D283Med xenografts. The data set is described as follows: Tumour growth inhibition in vivo, D283Med xenografts. Details: species or system mouse. The following applies: for Complete regressions: mice with regression/group.
Description: as §2

Data set [8] concerns D384Med xenografts. The data set is described as follows: Tumour growth inhibition in vivo, D384Med xenografts. More on the design: species or system mouse. The following applies: for Complete regressions: mice with regression/group, transient.
Description: as §2

A short description of data set [9]: Toxicity (body weight loss) in tumour-bearing mice. Type of data set: in vivo, mouse. As to conditions: daily x5; TMZ 68 mg kg−1 p.o., AG-014699 1 mg kg−1 i.p. On the procedure: CD-1 nude mice bearing palpable, established subcutaneous D425Med, D283Med and D384Med xenografts were treated with normal saline (control animals), temozolomide (68 mg kg^−1 per os (p.o.)) or AG-014699 (1 mg kg^−1 i.p.) alone or in combination, daily for 5 days (five mice per group). For drug combinations, AG-014699 was administered immediately after administering temozolomide. Tumour volumes, determined from two-dimensional calliper measurements and the equation a^2 × b/2 (where a is the […] of the tumour), were monitored for the experimental period (up to 100 days), and are presented for each group of mice as median relative tumour volume (RTV) values. Relative tumour volume 1 is the tumour volume on the initial day of treatment (day 0), and RTV4 is the tumour volume four times that on the initial day of treatment. Tumour growth delay (TGD) is defined as the time to RTV4 in drug-treated mice compared with the time to RTV4 in control (vehicle alone) mice. Median tumour volume is shown, rather than the mean, as this is generally accepted as the most statistically reliable representation of the average growth rate of tumours in a small group of mice, if a normal distribution of tumour volumes cannot be assumed. Tumour growth delay was calculated as: median time to RTV4 in treated group−median time to RTV4 in control group. Percentage enhancement was calculated as 100 × (TGD TMZ+AG-014699/TGD TMZ alone)−100 ([Calabrese et al, 2004]).

On to `CNCc1ccc(-c2[nH]c3cc(F)cc4c3c2CCNC4=O)cc1` [AG-014447], for which the “Levels in the brain relative to plasma” value in data set [1] (6 h after fourth daily dose 1 mg kg−1 i.p.) is “only marginally greater than plasma levels”. Further, the “Brain level relative to plasma level” value in [1] (24 h after single dose 1 mg kg−1 i.p.) is “up to 10 fold”. For the same compound, in [1] (day 1, 1 mg kg−1 i.p.), the AUC in tumour was 582.0 µmol·min/L, the AUC in brain worked out at 37.0 µmol·min/L, the AUC in plasma came out at 26.4 µmol·min/L and the Plasma half-life is 4.98 h. In data set [1] (day 4, 1 mg kg−1 i.p. daily), the AUC in tumour was determined as 509.6 µmol·min/L, the AUC in brain came out at 14.7 µmol·min/L, the AUC in plasma came out at 21.9 µmol·min/L and the Plasma half-life amounted to 4.23 h. Moreover, the “Plasma level of AG-014447 at 24 h” value in data set [1] (first dose AG-014699 1 mg kg−1 i.p., LLOQ 1 ng ml−1) is recorded as “below the level of quantitation”. For the same compound, in [2], the “c log D” value was 0.7 and the pKa was 9.6.

Consider `Cn1nnc2c(C(N)=O)ncn2c1=O` [temozolomide], for which the “Relative sensitivity to temozolomide (times more sensitive)” value in data set [3] (D425Med compared with D384Med, in culture) is ~25 times. Besides, the GI50 in data set [3] is 9.3 ± 7.5 µM; in [3] (Homo sapiens, D425 Med, 72 h), 9 µM; in data set [4] (Homo sapiens, D283 Med, 120 h, D283Med, temozolomide alone, XTT, 5 days), 807 ± 239 µM; in data set [5], 220 ± 42 µM. In addition, the “Relative sensitivity to temozolomide (times less sensitive)” value in [4] (D283Med compared with D384Med) is “nearly four times less sensitive”; in data set [4] (D283Med compared with D425Med), ~100 times. The “Median nadir body weight (% starting weight)” value is given as 96 % starting weight in [6] (D425Med-bearing mice, daily x5, TMZ 68 mg kg−1 p.o., AG-014699 1 mg kg−1 i.p.); 94 % starting weight in [7] (D283Med-bearing mice, daily x5, TMZ 68 mg kg−1 p.o., AG-014699 1 mg kg−1 i.p.); 97 % starting weight in [8] (D384Med-bearing mice, daily x5, TMZ 68 mg kg−1 p.o., AG-014699 1 mg kg−1 i.p.). Also, in data set [6] (D425Med, daily x5), the “Complete tumour regressions (including not sustained)” value is “complete tumour regressions seen in all mice; also recorded: all mice showing complete tumour regressions”. Further, the “Median time to RTV4” value was >100 days in [6] (D425Med, daily x5, TMZ 68 mg kg−1 p.o., AG-014699 1 mg kg−1 i.p.); 9 days in [7] (D283Med, daily x5, TMZ 68 mg kg−1 p.o., AG-014699 1 mg kg−1 i.p.); 44.5 days in data set [8] (D384Med, daily x5, TMZ 68 mg kg−1 p.o., AG-014699 1 mg kg−1 i.p.). Moreover, the Complete regressions entry in [6] (D425Med, mice with regression/group, sustained for 100 days) was “two out of five”; in data set [7] (D283Med) it was “no regressions observed in any mice”; in data set [7] (D283Med, listed as TMZ) it was 0/5; in data set [8] (D384Med), “one transient complete response”; in data set [8] (D384Med, listed as TMZ), 1/5. The Tumour growth delay in [6] (D425Med, versus control time to RTV4) is >81 days; in data set [7] (D283Med, versus control time to RTV4) it was 2 days; in data set [8] (D384Med, versus control time to RTV4), 28.5 days. In addition, the Body weight loss in data set [9] turned out to be 5±4%.
